The record followed here is patent US9782371B2, “Composition for promoting remyelination in nerve cells comprising 2,5-dihydroxybenzenesulfonic acid and use thereof” (Samsung Electronics Co., Ltd., priority 2015, dated 2017).

Test [1] has as its system PMP22. The test is described as follows: PMP22 protein expression by Western blotting in rat Schwann cells overexpressing human PMP22. The test is classed as cell-based. As for the experimental part:
Rat Schwann cells were inoculated at a concentration of about 10^5 cells/mL into each well of a 12-well plate including 2 mL of a Dulbecco's Modified Eagle's Medium (DMEM) containing 10% fetal bovine serum (FBS), 100 units/mL of penicillin, and 100 units/mL of streptomycin, and incubated in a 5%-CO2 incubator at about 37° C. to a cell density of about 60% to about 65%. […] Rat Schwann cells are often used in in vitro models for neuronal function and differentiation. The rat Schwann cells used herein were modified to consistently overexpress the human PMP22 gene by lentivital mediated integration of PMP22 into a chromosome and selective use of puromycin-resistant markers, thereby constructing a new rat Schwann PMP22 cell model. The rat Schwann cells (ATCC number; CRL-2768) were purchased from the American Type Culture Collection (ATCC).
After 2 mL of the culture medium was removed, the resulting rat Schwann cells were washed with phosphate buffered saline (PBS), followed by adding a lysis solution containing a 0.5% triton X-100 in PBS thereto, collecting the cells using a scraper, leaving the cells on ice for about 30 minutes, and then disrupting the cells. […]
A general note: Immunoblotting shows a protein as a band on a membrane.

Test [2] relates to myelin surrounding axons of the posterior lateral line nerves (PLLs). Description: Remyelination of peripheral nervous system (PLL myelin) in MTZ-demyelinated transformed zebrafish, GFP-fluorescence confocal microscopy. It counts as in vivo, Zebrafish (Danio rerio). How it is done:
Transformed Zebrafish (Danio rerio) in which genes respectively encoding an Mbp:EGFP fusion protein and a Claudink:EGFP fusion protein that are specifically expressed in myelin and emit fluorescence by using promoters of a myelin basic protein (MBP) gene and a Claudink gene were prepared, by transforming Zebrafish cells with genes respectively encoding an Mbp:EGFP fusion protein and a Claudink:EGFP fusion protein. Specifically, the NfsB virulence gene encodes a nitroreductase (NTR) enzyme. […] However, when metronidazole (MTZ) is added to cells, the cells convert MTZ into a cytotoxic material by using NTR, which induces apoptosis. Genetically engineered zebrafish, i.e., transformed zebrafish that express the NfsB virulence gene specifically in differentiated oligodendrocytes and Schwann cells were prepared by using promoters of mbp and claudink genes that specifically operate in differentiated myelin to express myelin-specific genes bound to myelin, and using the Gal4-UAS transactivator system. Next, it was confirmed that the NfsB virulence gene was myelin-specifically expressed in the transformed zebrafish.
As a result, an animal model of demyelination that is induced in the presence of MTZ was established. Hereinafter, this animal model is also referred to as zebrafish (Mbp (or claudink):gal4::UAS:nfsB (NTR, toxin)::UAS:gfp). After removing the added MTZ substrate from the culture medium, the transformed zebrafish were then cultured in a culture medium free of MTZ for 1 day, followed by a recovery period. This study, described in greater detail below, confirmed that natural remyelination occurred in the demyelinated central nervous system and peripheral nervous system and that ES drug has an effect of promoting remyelination. […]

Test [3] relates to Mauthner axons and myelin in the central nervous system. Description: Remyelination of central nervous system (Mauthner axons) in MTZ-demyelinated transformed zebrafish, g-ratio. It counts as in vivo, Zebrafish (Danio rerio). The conditions noted are these: zebrafish ClaudinK line. How it is done: Transformed Zebrafish (Danio rerio) in which genes respectively encoding an Mbp:EGFP fusion protein and a Claudink:EGFP fusion protein that are specifically expressed in myelin and emit fluorescence by using promoters of a myelin basic protein (MBP) gene and a Claudink gene were prepared, by transforming Zebrafish cells with genes respectively encoding an Mbp:EGFP fusion protein and a Claudink:EGFP fusion protein. Specifically, the NfsB virulence gene encodes a nitroreductase (NTR) enzyme. […] However, when metronidazole (MTZ) is added to cells, the cells convert MTZ into a cytotoxic material by using NTR, which induces apoptosis. […]
FIG. 6 illustrates the results of GFP-originated fluorescence microscopy and red fluorescence microscopy with immunostaining by acetylated-tubulin that is expressed specific to axons, by using a confocal laser microscope on sections of Mauthner axons and myelin in the central nervous system of the zebrafish (ClaudinK:gal4::UAS:nfsB (NTR, toxin)::UAS:gfp) incubated under various conditions. […] The axon and fiber diameters were obtained by calculating the diameters from the intensities of GFP-originated fluorescence and red axonal fluorescence with the Image J program. […]

The structures appear in SMILES notation.

As for `CCNCC.O=S(=O)(O)c1cc(O)ccc1O` [ethamsylate, diethyl ammonium 2,5-dihydroxybenzene sulfonic acid], in test [1] (10 μM ethamsylate, incubation for 0.5, 1, 12, 24 and 48 hours, vs 0 hour control, FIG. 1 panel B), the “expression level of PMP22 protein” value is “decreased compared to the control group”. Besides, the “amount of PMP22 protein expressed” value in test [1] (0.1, 1, 10, 100 μM ethamsylate in DMSO, about 24 hours, vs DMSO control, FIG. 1 panel A, n=4) was “decrease in the amount of PMP22 protein expressed”. Moreover, in test [2] (zebrafish Claudink line, 10 μM ES vs MTZ treated sample, FIGS. 4 and 5), the “ratio of myelinated axons to total axons” value was “significantly higher”. For the same compound, the “remyelination of PLL myelin (GFP and acetylated-tubulin fluorescence)” value in test [2] (zebrafish Claudink:gal4::UAS:nfsB::UAS:gfp, 10 μM ES after MTZ, FIG. 4) was “promote remyelination”. Also, in test [2] (zebrafish Mbp:gal4::UAS:nfsB::UAS:gfp, MTZ 4.5-6 dpf, washed, 10 μM ES 6-7 dpf (about 1 day), FIG. 3 panel D), the “myelin in the peripheral nervous system (GFP-originated green fluorescence)” value was “completely remyelinated”. Further, the “g-ratio (diameter ratio of axon to nerve fiber)” value in test [3] (Mauthner axons, 10 μM ethamsylate vs MTZ treatment group, FIG. 8) is “remarkably reduced g-ratio”. Also, in test [3] (incubated in presence of ethamsylate after MTZ, FIGS. 6 and 8), the “regeneration or remyelination of demyelinated nerve cells in the central nervous system” value is listed as “remyelinated with a significantly higher efficiency”.
